Each molecule was assayed against T1, human ENPP1 enzymatic domain (Homo sapiens, UniProt P22413) (assay: ENPP1 Enzymatic Inhibition Assay (2′3′-cGAMP substrate, AMP-Glo luminescence)). Conditions: 1 nM ENPP1, 20 uM 2′3′-cGAMP, 30 minutes at 37° C.
T1 construct: recombinant protein containing the human ENPP1 enzymatic domain; purchased Viva Biotech
T1 sequence (P22413 191-591 limits assumed): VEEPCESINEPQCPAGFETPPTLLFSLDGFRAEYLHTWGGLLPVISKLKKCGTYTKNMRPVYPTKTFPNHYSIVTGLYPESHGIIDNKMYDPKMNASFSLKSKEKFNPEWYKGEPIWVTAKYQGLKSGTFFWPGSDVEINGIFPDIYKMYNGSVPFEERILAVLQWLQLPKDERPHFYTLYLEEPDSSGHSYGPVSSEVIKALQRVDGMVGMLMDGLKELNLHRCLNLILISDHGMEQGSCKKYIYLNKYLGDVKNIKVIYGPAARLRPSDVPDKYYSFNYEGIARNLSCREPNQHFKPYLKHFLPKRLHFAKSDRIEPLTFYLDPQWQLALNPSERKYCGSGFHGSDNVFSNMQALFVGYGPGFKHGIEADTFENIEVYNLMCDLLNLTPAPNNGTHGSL
Type: biochemical
Description: The inhibition of ENPP1's phosphodiesterase activity were tested in a purified enzymatic assay using 2′3′-cyclic GAMP as a substrate which allowed for the release of cleaved AMP to be monitored using a luminescent assay.
Putative inhibitors were diluted in assay buffer (50 mM Tris pH 8.0, 250 mM NaCl, 0.5 mM CaCl2), 1 uM ZnCl2, 1% DMSO) and pre-incubated for 15 minutes at 37° C. with recombinant protein containing the human ENPP1 enzymatic domain (Viva Biotech). The enzymatic reaction was initiated upon addition of the 2′3′-cGAMP substrate. The final reaction concentrations were 1 nM ENPP1 and 20 uM 2′3′-cGAMP substrate in a 25 uL volume. Inhibitor concentrations ranged from 10 uM to 0.056 nM. The reaction was incubated for 30 minutes at 37° C.
After reacting for 30 minutes, the amount of AMP generated from the cleavage of 2′3′-cGAMP was determined using the Promega AMP-Glo method according to the manufacturer's protocol. First, AMP-Glo reagent 1 was added and incubated with the reaction mix for 1 hour at room temperature. Second, AMP Detection solution was added and the mixture was incubated for an additional hour. The luminescence of the mixture was read on a Perkin Elmer Ensight plate reader.
The maximum and minimum levels of ENPP1 activity were established using no inhibitor and no enzyme controls, respectively. The activity observed using ENPP1 inhibitors was quantified as the percent of activity relative to these controls. IC50 values were calculated using CDD Vault by fitting a sigmoidal variable slope nonlinear regression model to the data.
In the case of `COc1ccc2c(Oc3ccc([S@@](=N)(=O)NC[C@H](O)CO)cc3)ccnc2c1` [Compound 34, (S)-N-((S)-2,3-dihydroxypropyl)-4-((7-methoxyquinolin-4-yl)oxy)benzenesulfonimidamide], the IC50 is reported as less than 10 nM.
In the case of `COc1ccc2c(Nc3ccc([S@](=N)(=O)N[C@H](C)CO)cc3)ccnc2c1` [Compound 35, (R)-N-((R)-1-hydroxypropan-2-yl)-4-((7-methoxyquinolin-4-yl)amino)benzenesulfonimidamide], the IC50 is reported as less than 10 nM.
With `COc1ccc2c(Nc3ccc([S@@](=N)(=O)N[C@H](C)CO)cc3)ccnc2c1` [Compound 36, (S)-N-((R)-1-hydroxypropan-2-yl)-4-((7-methoxyquinolin-4-yl)amino)benzenesulfonimidamide] the IC50 was less than 10 nM.
`COc1ccc2c(Nc3ccc([S@](=N)(=O)NC[C@H](C)O)cc3)ccnc2c1` [Compound 37, (R)-N-((S)-2-hydroxypropyl)-4-((7-methoxyquinolin-4-yl)amino)benzenesulfonimidamide] showed an IC50 of less than 10 nM.
`COc1ccc2c(Nc3ccc([S@@](=N)(=O)NC[C@H](C)O)cc3)ccnc2c1` [Compound 38, (S)-N-((S)-2-hydroxypropyl)-4-((7-methoxyquinolin-4-yl)amino)benzenesulfonimidamide] was tested, and the IC50 was less than 10 nM.
In the case of `COc1ccc2c(Nc3ccc([S@](=N)(=O)N[C@@H](C)CO)cc3)ccnc2c1` [Compound 39, (R)-N-((S)-1-hydroxypropan-2-yl)-4-((7-methoxyquinolin-4-yl)amino)benzenesulfonimidamide], the IC50 is reported as less than 10 nM.
With `COc1ccc2c(Nc3ccc([S@@](=N)(=O)N[C@@H](C)CO)cc3)ccnc2c1` [Compound 40, (S)-N-((S)-1-hydroxypropan-2-yl)-4-((7-methoxyquinolin-4-yl)amino)benzenesulfonimidamide] the IC50 was 10 to 100 nM.
With `COc1ccc2c(Nc3ccc([S@](=N)(=O)N[C@@H](C)c4ccnn4C)cc3)ccnc2c1` [Compound 41, (R)-4-((7-methoxyquinolin-4-yl)amino)-N-((S)-1-(1-methyl-1H-pyrazol-5-yl)ethyl)benzenesulfonimidamide] the IC50 was 10 to 100 nM.
In the case of `COc1ccc2c(Nc3ccc([S@@](=N)(=O)N[C@@H](C)c4ccnn4C)cc3)ccnc2c1` [Compound 42, (S)-4-((7-methoxyquinolin-4-yl)amino)-N-((S)-1-(1-methyl-1 H-pyrazol-5-yl)ethyl)benzenesulfonimidamide], the IC50 is reported as less than 10 nM.
With `COc1ccc2c(Oc3ccc([S@](=N)(=O)NC[C@H](O)C(C)(C)C)cc3)ccnc2c1` [Compound 43, (R)-N-((R)-2-hydroxy-3,3-dimethylbutyl)-4-((7-methoxyquinolin-4-yl)oxy)benzenesulfonimidamide] the IC50 was less than 10 nM.
Work on `COc1ccc2c(Oc3ccc([S@@](=N)(=O)NC[C@H](O)C(C)(C)C)cc3)ccnc2c1` [Compound 44, (S)-N-((R)-2-hydroxy-3,3-dimethylbutyl)-4-((7-methoxyquinolin-4-yl)oxy)benzenesulfonimidamide] yielded an IC50 of 10 to 100 nM.
`COc1ccc2c(Nc3ccc([S@](=N)(=O)NC[C@H](C)O)cc3F)ccnc2c1` [Compound 45, (R)-3-fluoro-N-((S)-2-hydroxypropyl)-4-((7-methoxyquinolin-4-yl)amino)benzenesulfonimidamide] showed an IC50 of 10 to 100 nM.
For `COc1ccc2c(Nc3ccc([S@@](=N)(=O)NC[C@H](C)O)cc3F)ccnc2c1` [Compound 46, (S)-3-fluoro-N-((S)-2-hydroxypropyl)-4-((7-methoxyquinolin-4-yl)amino)benzenesulfonimidamide], the IC50 was less than 10 nM.
`COc1ccc2c(Nc3ccc([S@](=N)(=O)NC[C@H](C)O)c(F)c3)ccnc2c1` [Compound 47, (R)-2-fluoro-N-((S)-2-hydroxypropyl)-4-((7-methoxyquinolin-4-yl)amino)benzenesulfonimidamide] gave an IC50 of less than 10 nM.
`COc1ccc2c(Nc3ccc([S@@](=N)(=O)NC[C@H](C)O)c(F)c3)ccnc2c1` [Compound 48, (S)-2-fluoro-N-((S)-2-hydroxypropyl)-4-((7-methoxyquinolin-4-yl)amino)benzenesulfonimidamide] showed an IC50 of less than 10 nM.
`COc1ccc2c(Nc3ccc([S@](=N)(=O)NCCCn4cnnc4)cc3)ccnc2c1` [Compound 49, (R)-N-(3-(4H-1,2,4-triazol-4-yl)propyl)-4-((7-methoxyquinolin-4-yl)amino)benzenesulfonimidamide] was tested, and the IC50 was less than 10 nM.
`COc1ccc2c(Nc3ccc([S@@](=N)(=O)NCCCn4cnnc4)cc3)ccnc2c1` [Compound 50, (S)-N-(3-(4H-1,2,4-triazol-4-yl)propyl)-4-((7-methoxyquinolin-4-yl)amino)benzenesulfonimidamide] showed an IC50 of less than 10 nM.
Molecule `COc1cc2nccc(Nc3ccc([S@](=N)(=O)NC[C@@H](C)O)cc3)c2cc1OC` [Compound 51, (R)-4-((6,7-dimethoxyquinolin-4-yl)amino)-N-((R)-2-hydroxypropyl)benzenesulfonimidamide] has an IC50 of 10 to 100 nM.
`COc1cc2nccc(Nc3ccc([S@@](=N)(=O)NC[C@@H](C)O)cc3)c2cc1OC` [Compound 52, (S)-4-((6,7-dimethoxyquinolin-4-yl)amino)-N-((R)-2-hydroxypropyl)benzenesulfonimidamide] was tested, and the IC50 was less than 10 nM.
With `COc1ccc2c(Nc3ccc([S@](=N)(=O)NCCO)cc3)ccnc2c1` [Compound 53, (R)-N-(2-hydroxyethyl)-4-((7-methoxyquinolin-4-yl)amino)benzenesulfonimidamide] the IC50 was less than 10 nM.
`COc1ccc2c(Nc3ccc([S@@](=N)(=O)NCCO)cc3)ccnc2c1` [Compound 54, (S)-N-(2-hydroxyethyl)-4-((7-methoxyquinolin-4-yl)amino)benzenesulfonimidamide] was tested, and the IC50 was less than 10 nM.
In the case of `COc1ccc2c(Nc3ccc([S@](=N)(=O)NC[C@@H](C)O)cc3)ccnc2c1` [Compound 55, (R)-N-((R)-2-hydroxypropyl)-4-((7-methoxyquinolin-4-yl)amino)benzenesulfonimidamide], the IC50 is reported as less than 10 nM.
`COc1cccc2c(Nc3ccc([S@](=N)(=O)NCCO)cc3)ccnc12` [Compound 57, (R)-N-(2-hydroxyethyl)-4-((8-methoxyquinolin-4-yl)amino)benzenesulfonimidamide] was tested, and the IC50 was greater than 100 nM.
`COc1cccc2c(Nc3ccc([S@@](=N)(=O)NCCO)cc3)ccnc12` [Compound 58, (S)-N-(2-hydroxyethyl)-4-((8-methoxyquinolin-4-yl)amino)benzenesulfonimidamide] was tested, and the IC50 was less than 10 nM.
`COc1ccc2c(Nc3ccc([S@](=N)(=O)NC[C@H](O)C(C)(C)C)cc3)ccnc2c1` [Compound 59, (R)-N-((R)-2-hydroxy-3,3-dimethylbutyl)-4-((7-methoxyquinolin-4-yl)amino)benzenesulfonimidamide] was tested, and the IC50 was less than 10 nM.
For `COc1ccc2c(Nc3ccc([S@@](=N)(=O)NC[C@H](O)C(C)(C)C)cc3)ccnc2c1` [Compound 60, (S)-N-((R)-2-hydroxy-3,3-dimethylbutyl)-4-((7-methoxyquinolin-4-yl)amino)benzenesulfonimidamide], the IC50 was less than 10 nM.
`COc1cccc2c(Nc3ccc([S@](=N)(=O)NC[C@@H](C)O)cc3)ncnc12` [Compound 61, (R)-N-((R)-2-hydroxypropyl)-4-((8-methoxyquinazolin-4-yl)amino)benzenesulfonimidamide] gave an IC50 greater than 100 nM.
`COc1cccc2c(Nc3ccc([S@@](=N)(=O)NC[C@@H](C)O)cc3)ncnc12` [Compound 62, (S)-N-((R)-2-hydroxypropyl)-4-((8-methoxyquinazolin-4-yl)amino)benzenesulfonimidamide] gave an IC50 of 10 to 100 nM.
For `COc1ccc2c(Nc3ccc([S@](=N)(=O)NC[C@@H](C)O)cc3)ncnc2c1` [Compound 63, (R)-N-((R)-2-hydroxypropyl)-4-((7-methoxyquinazolin-4-yl)amino)benzenesulfonimidamide], the IC50 was 10 to 100 nM.
`COc1ccc2c(Nc3ccc([S@@](=N)(=O)NC[C@@H](C)O)cc3)ncnc2c1` [Compound 64, (S)-N-((R)-2-hydroxypropyl)-4-((7-methoxyquinazolin-4-yl)amino)benzenesulfonimidamide] gave an IC50 of less than 10 nM.
`COc1cc2nccc(Nc3ccc([S@@](=N)(=O)NC4CC4)cc3)c2cc1F` [Compound 67, (S)-N-cyclopropyl-4-((6-fluoro-7-methoxyquinolin-4-yl)amino)benzenesulfonimidamide] showed an IC50 of less than 10 nM.
In the case of `COc1cc2nccc(Nc3ccc([S@@](=N)(=O)NC[C@@H](C)O)cc3)c2cc1F` [Compound 68, (S)-4-((6-fluoro-7-methoxyquinolin-4-yl)amino)-N-((R)-2-hydroxypropyl)benzenesulfonimidamide], the IC50 is reported as less than 10 nM.

Source: patent US20240382474A1, “ENPP1 MODULATORS AND USES THEREOF” (Vir Biotechnology, Inc., priority 2021, published 2024)
